Data: patent US11053516B2, “Glucose composition, microbial fermentation raw material, and method of producing chemical product” (Toray Industries, Inc., priority 2016, dated 2021)

From the text: Further, the glucose composition was adjusted to a final pH of 7 using 6 N sodium hydroxide.

Solubility in water: not dissolved
SMILES: O=C(O)/C=C/c1ccc(O)cc1 [Coumaric acid, trans-p-coumaric acid]
